From US20210040134A1, “COMBINATIONS OF MACROLIDE COMPOUNDS AND IMMUNE CHECKPOINT INHIBITORS” (ISR IMMUNE SYSTEM REGULATION HOLDING AB (PUBL), priority 2018, published 2021) come the findings set out here.

Data set [1] is described as follows: Human microsome stability assay. The note with it: pH 7.4, human liver microsomes, read-out: T½. It counts as in vitro ADME. How it is done:
Rate of metabolism in microsomes was tested as follows:
Human liver microsomes were diluted with buffer C (0.1 M Potassium Phosphate buffer, 1.0 mM EDTA, pH 7.4) to a concentration of […]. Microsomal stability studies were carried out by adding 30 μL of 1.5 μM compound spiking solution to wells (1.5 μL of 500 μM spiking solution (10 μL of 10 mM DMSO stock solution into 190 μL ACN to eventually generate final test concentration of 1 uM) and 18.75 μL of 20 mg/mL liver microsomes into 479.75 μL of Buffer C). All samples were pre-incubated for approximately 15 minutes at 37° C. Following this, the reaction was initiated by adding 15 μL of the NADPH solution (6 mM) with gentle mixing. Aliquots (40 μL) were removed at 0, 5, 15, 30 and 45 minutes and quenched with ACN containing internal standard (135 μL). Protein was removed by centrifugation (4000 rpm, 15 min) and the sample plate analysed for compound concentration by LC-MS/MS. Half-lives were then calculated by standard methods, comparing the concentration of analyte with the amount originally present.
The metabolic stability of the compounds of the invention was assessed in a standard human microsome stability assay (see general methods).
For orientation: Liver microsomes are a subcellular fraction often used to study metabolism.

A short description of data set [2]: Caco-2 bidirectional permeability assay. It counts as in vitro ADME. Conditions: human, Caco-2; B to A permeability divided by A to B permeability. How it is done: (§1) 10 μM Test article was added to the apical (A) surface of Caco-2 cell monolayers (in HBSS buffer with 0.3% DMSO and 5 μM LY at 37 degrees C.) and compound permeation into the basolateral (B) compartment measured following 90 minutes incubation. This was also performed in the reverse direction (basolateral to apical) to investigate active transport. LC-MS/MS is used to quantify levels of both the test and standard control compounds. Efflux ratio was calculated by dividing the B to A permeability by the A to B permeability.
(§2) Drug permeability:Papp=(VA/(Area×time))×([drug]accepter/(([drug]initial,donor)×Dilution Factor)
(§3) The permeability of the compounds of the invention was assessed in a standard caco-2 bidirectional permeability assay (see general methods).
(In general: Passage across Caco-2 layers is used to estimate intestinal permeability.)

The subject of another data set is Caco-2 cell monolayers. The data set can be described thus: Caco-2 bidirectional permeability assay. The class given is in vitro ADME. The note with it: Caco-2, 10 μM test article, 90 minutes. The method, then: as §1, §2, §3
Another data set addresses T1, human TLR2 (Homo sapiens, UniProt O60603).
T1 construct: host or cells: recombinant HEK-293-TLR cell lines
The data set can be described thus: TLR2 reporter assay (HEK-293-TLR, SEAP). It counts as cell-based. The note with it: concentrations up to 20 uM. The method, then:
Samples and controls were tested in duplicate on recombinant HEK-293-TLR cell lines using a cell reporter assay at Invivogen using their standard assay conditions. These cell lines functionally over-express human TLR2 protein as well as a reporter gene which is a secreted alkaline phosphatase (SEAP). The production of this reporter gene is driven by an NFkB inducible promoter. The TLR reporter cell lines activation results are given as optical density values (OD).
20 μl of each test article were used to stimulate the hTLR2 reporter cell lines in a 200 μl of final reaction volume. Samples were tested in duplicate, with at least two concentrations tested—20 uM and 10 uM.
Compounds were tested using a TLR2 reporter assay (see general methods) that measured for stimulation of the TLR2 receptor. Stimulatory effect was measured as an increase in optical density (OD) due to release of secreted alkaline phosphatase (SEAP) and is shown in table 4: […]

Data set [3] concerns E. coli, S. salivarius, L. casei, B. longum, M. luteus. The data set can be described thus: MIC assay, summary over all bacterial strains tested. It counts as cell-based. Conditions: any of the strains tested. How it is done: The bioactivity of macrolide compounds against 4 strains of common gut bacteria (Escherichia coli, Streptococcus salivarius subsp. salivarius, Lactobacillus casei and Bifidobacterium longum subsp. infantis) and common mammalian skin isolate Micrococcus luteus, was assessed using the Minimum Inhibitory Concentration (MIC) assay. Bacterial strains were purchased from DSMZ (Brunswick, Germany) except M. luteus which was obtained from NCIMB, and stored in 20% glycerol at −80° C. Stock solutions (100% DMSO) of positive controls (azithromycin and erythromycin), and of test compounds 1 and 2 were diluted in broth to working stock concentrations of 256 μg/ml (final assay testing concentration range 128 μg/ml to 0.00391 μg/ml). Stock solutions of all other compounds were diluted in broth to working stock concentrations of 128 μg/ml (final assay testing concentration range 64 μg/ml to 0.00195 μg/ml). Bacterial strains were cultivated in appropriate broth in an anaerobic chamber at 37° C., except for M. luteus which was incubated aerobically at 37° C. 18 h cultures were diluted in broth to an OD595 of 0.1 and then further diluted 1:10. In 96-well plates, in duplicate, 200 μl working stock of test compound was transferred to well 1 and serially diluted (1:2) in broth. 100 μl bacterial suspension was aliquoted into each well and mixed thoroughly. Appropriate sterility controls were included and plates were incubated in an anaerobic chamber, or aerobically (M. luteus) at 37° C. for 18 h. The MIC was determined to be the concentration of test compound in the first well with no visible growth.

Structures are written as SMILES. Bounds are passed on as bounds.

T1 sequence (O60603 21-784): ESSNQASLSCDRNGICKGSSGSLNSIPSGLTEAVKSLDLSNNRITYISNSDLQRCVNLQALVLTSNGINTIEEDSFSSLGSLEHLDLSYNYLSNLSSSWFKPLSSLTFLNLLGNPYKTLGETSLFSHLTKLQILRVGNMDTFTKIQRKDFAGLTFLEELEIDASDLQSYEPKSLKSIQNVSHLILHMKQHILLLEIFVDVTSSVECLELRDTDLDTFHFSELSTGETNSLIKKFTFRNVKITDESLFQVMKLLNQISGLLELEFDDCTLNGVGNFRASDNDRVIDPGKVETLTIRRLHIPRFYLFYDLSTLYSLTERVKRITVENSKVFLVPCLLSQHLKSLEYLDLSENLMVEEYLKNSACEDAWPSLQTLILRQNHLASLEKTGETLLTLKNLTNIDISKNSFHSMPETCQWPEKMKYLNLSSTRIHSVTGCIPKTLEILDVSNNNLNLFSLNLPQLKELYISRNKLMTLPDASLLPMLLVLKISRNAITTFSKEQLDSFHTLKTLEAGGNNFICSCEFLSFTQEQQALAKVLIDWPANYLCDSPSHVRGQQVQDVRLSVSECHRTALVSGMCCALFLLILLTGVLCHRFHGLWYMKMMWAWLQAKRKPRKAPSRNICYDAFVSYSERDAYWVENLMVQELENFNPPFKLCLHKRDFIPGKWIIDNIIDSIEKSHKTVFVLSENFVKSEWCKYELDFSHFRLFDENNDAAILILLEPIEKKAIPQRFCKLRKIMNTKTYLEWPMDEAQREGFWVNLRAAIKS

In the case of `CC[C@H]1OC(=O)[C@H](C)[C@@H](O[C@H]2C[C@@](C)(OC)[C@@H](O)[C@H](C)O2)[C@H](C)[C@@H](O[C@@H]2O[C@H](C)C[C@H](N(C)C)[C@H]2O)[C@](C)(O)C[C@@H](C)CN(C)[C@H](C)[C@@H](O)[C@]1(C)O` [Azithromycin, reference compound], the half-life at 1 uM in data set [1] was 4.08 h. Further, in data set [2], the efflux ratio (in general, the permeability from basolateral to apical divided by that in the opposite direction, in the common usage) at 90 minutes, 10 μM was more than 78. In the data set on Caco-2 cell monolayers, the Papp was <0.14 × 10^6/cm · s^−1. Besides, on human TLR2, the “TLR2 stimulation (in words)” value is reported as “little or no stimulation”. In data set [3], the “antibacterial activity against the bacterial strains tested (in words)” value (from here on “antibacterial activity”) is “potent activity”.
In the case of `CC[C@H]1OC(=O)[C@H](C)[C@@H](O[C@H]2CC(N(C)C)[C@H](O)C(C)O2)[C@H](C)[C@@H](O)[C@](C)(O)C[C@@H](C)C(=O)[C@H](C)[C@@H](O)[C@H]1C` (some centres unmarked) [Compound 3], at human TLR2, the “TLR2 stimulation (in words)” value is listed as “little or no stimulation”. Also, the “antibacterial activity” value in data set [3] is recorded as “no antibacterial activity”.
On to `CC(O)[C@H]1OC(=O)[C@H](C)[C@@H](O[C@H]2C[C@@H](N(C)C)[C@H](O)[C@@H](C)O2)[C@H](C)[C@@H](O)[C@](C)(O)C[C@@H](C)C(=O)[C@H](C)[C@@H](O)[C@H]1C` (some centres unmarked) [Compound 9, 14-hydroxy angolosamine erythronolide B], for which the half-life at 1 uM in data set [1] turned out to be 1.67 h. In addition, the “antibacterial activity” value in data set [3] was “no antibacterial activity”.
In the same order, the values of `CC[C@H]1OC(=O)[C@H](C)[C@@H](O[C@H]2CC(NC)[C@H](O)C(C)O2)[C@H](C)[C@@H](O)[C@](C)(O)C[C@@H](C)C(=O)[C@H](C)[C@@H](O)[C@H]1C` (some centres unmarked) [Compound 6] are 1.82 h and “no antibacterial activity”.
With `CC[C@H]1OC(=O)[C@H](C)[C@@H](O[C@H]2C[C@@](C)(OC)[C@@H](O)[C@H](C)O2)[C@H](C)[C@@H](O[C@@H]2O[C@H](C)C[C@H](N(C)C)[C@H]2O)[C@](C)(O)C[C@@H](C)C(=O)[C@H](C)[C@@H](O)[C@]1(C)O` [Erythromycin, reference compound], the half-life at 1 uM in data set [1] was determined as 0.517 h. Also, at human TLR2, the “TLR2 stimulation (in words)” value is listed as “little or no stimulation”. In addition, the “antibacterial activity” value in data set [3] is recorded as “potent activity”.
In the case of `CC1O[C@@H](O[C@H]2[C@H](C)[C@@H](O)[C@](C)(O)C[C@@H](C)C(=O)[C@H](C)[C@@H](O)[C@@H](C)[C@@H](C3CCC3)OC(=O)[C@@H]2C)CC(N(C)C)[C@@H]1O` (some centres unmarked) [Compound 5], in data set [3], the “antibacterial activity” value is recorded as “no antibacterial activity”.
With `CC[C@H]1OC(=O)[C@H](C)[C@@H](O[C@H]2CC(N(C)C)[C@H](O)C(C)O2)[C@H](C)[C@@H](O)[C@](C)(O)C[C@@H](C)C(O)[C@H](C)[C@@H](O)[C@H]1C` (some centres unmarked) [Compound 7], the half-life at 1 uM in data set [1] was 0.933 h. In data set [3], the “antibacterial activity” value was “no antibacterial activity”.
Consider `CC[C@H]1OC(=O)[C@H](C)[C@@H](O[C@H]2CC(N(C)C)[C@H](O)C(C)O2)[C@H](C)[C@@H](O)[C@](C)(O)C[C@@H](C)N(C)C[C@H](C)[C@@H](O)[C@]1(C)O` (some centres unmarked) [Compound 17], for which the “TLR2 stimulation (in words)” value on human TLR2 was “stimulated TLR2 at concentrations down to 10 uM”.
For the compound `CC[C@H]1OC(=O)[C@H](C)[C@@H](O[C@H]2CC(N(C)C)[C@H](O)C(C)O2)[C@H](C)[C@@H](O)[C@](C)(O)C[C@@H](C)CN(C)[C@H](C)[C@@H](O)[C@H]1C` (some centres unmarked) [Compound 4], in data set [3], the “antibacterial activity” value was “no antibacterial activity”.
As to `CC1O[C@@H](O[C@H]2[C@H](C)[C@@H](O)[C@](C)(O)C[C@@H](C)C(=O)[C@H](C)[C@@H](O)[C@@H](C)[C@@H](C)OC(=O)[C@@H]2C)CC(N(C)C)[C@@H]1O` (some centres unmarked) [Compound 8], in data set [3], the “antibacterial activity” value was “no antibacterial activity”.
